Reference: a melting point compilation (Tetko et al.; mined from patent text by program, amines drawn as free bases though some values may be those of a salt)

Row | melting point | Structure (SMILES)
1 | 111 to 112 °C | CCCc1c(OCCCCCC(=O)c2ccc3cc(OC)c(OC)cc3c2)ccc(C(=O)OC)c1O
2 | 117 to 119 °C | COc1ccc2c(Cl)nc(C(=O)NCCO)c(O)c2c1
3 | 111 to 112 °C | NS(=O)(=O)Oc1ccc(C(F)(F)F)cc1
4 | 81 to 82 °C | CCOC(=O)c1nc2c(C)nn(CC)c2nc1OCC
5 | 128 to 130 °C | COc1cccc2c1C(C)C(=O)N2 (centres undefined)
6 | 39.5 to 43 °C | Clc1cnc(Br)c(Br)c1
7 | 96 to 98 °C | CCC(=O)NCCC1CNc2ccc3c(c21)CCO3 (centres undefined)
8 | 216 to 219 °C | CCn1cc(C(=O)O)c(=O)c2cnc(N3CCN(Cc4ccc(NC(C)=O)cc4)CC3)nc21
9 | 157 to 163 °C | Cc1cccc(NC(=O)NC2N=C(C3CCCCC3)c3ccccc3N(Cc3ccccn3)C2=O)c1 (centres undefined)
10 | 118 to 119 °C | Oc1ccc2c(c1)OCC(c1cccc(C(F)(F)F)c1)C2c1ccc(OCCN2CCCCC2)cc1 (centres undefined)
11 | 143 °C | c1ccc(C(c2ccnc3ccccc23)n2ccnc2)cc1 (centres undefined)
12 | 194 to 195 °C | CNc1nc(Cc2cc(OC)c(OC)c(OC)c2)nc2sc(C#N)c(C)c12
13 | 145 to 146 °C | O=C1N(Cc2ccc(Cl)s2)c2ccccc2C12COc1cc3c(cc12)OCO3 (centres undefined)
14 | 302 to 304 °C | COc1ccc(C2=Nc3ccc(N4CCOCC4)cc3C(=O)C2)cc1
15 | 128 to 130 °C | CC(C)(C)c1nc2ccc(Cl)nn2n1
16 | 210 °C | CCCC(=O)Nc1n[nH]c2cc(-c3ccc(CC)cc3)ccc12
17 | > 270 °C | COc1nc(-c2ccc(F)cc2)nc(-c2ccccn2)n1
18 | 215 to 220 °C | COc1cc2ncc(C#N)c(Nc3ccc(F)c(Cl)c3)c2cc1NC(=O)C=CCN1CCC(O)C1 (centres undefined)
19 | 125 to 126 °C | CN1CCN(CNc2nc(OCc3ccc(F)cc3)ncc2F)CC1
20 | 135 to 138 °C | CCc1c(C)c(=O)oc2cc(-c3nnc(C)s3)cc(OC)c12
21 | 195 to 197 °C | NC(=O)C1CCC(NC(=O)NCc2ccc3c(c2)CN(C2CCC(=O)NC2=O)C3=O)CC1 (centres undefined)
22 | 155 to 157 °C | Cc1cc2nc3c(nc2cc1[N+](=O)[O-])SC(C#N)=C(C#N)S3

Row | melting point | Structure (SMILES)
23 | 249 to 250 °C | COc1ccc(C#Cc2cc3ncc(C#N)c(Nc4cc(OC)c(Cl)cc4Cl)c3s2)cc1
24 | 174 to 176 °C | CCCOC(=O)N1CCN(C(=O)c2cc(S(=O)(=O)N(C)C)ccc2N)CC1
25 | 41.5 to 43 °C | C#CCCCOc1c(C)cc(-c2noc(C)n2)cc1C
26 | 191 to 198 °C | CN1CCC(CCCOc2cc3ncnc(Nc4cccc(Br)c4)c3cc2N)CC1
27 | 88.6 to 90.1 °C | COC(=O)C(Cc1ccc(OCCN(C)c2nc3ccccc3o2)cc1)Sc1ccc(C)cc1 (centres undefined)
28 | 99 °C | NCC1COc2cc(F)cc(-c3ccccc3C(F)(F)F)c2N1 (centres undefined)
29 | 132 to 134 °C | N#Cc1cc(NC(=O)c2ccccc2F)ccc1-n1nc(C(F)(F)F)cc1C(F)(F)F
30 | 195 °C | O=C1N(c2cc(Cl)cc(Cl)c2)C(=O)C2(Cc3ccc(-c4nnn[nH]4)cc3)CCCN12 (centres undefined)
31 | 220 °C | Cc1ccc(-c2cc(C(F)(F)F)n3cnc(C#N)c3n2)cc1C(F)(F)F
32 | 118 to 120 °C | CC(C)n1nc(-c2sc(C(=O)NC3CC3)nc2-c2cccc(Cl)c2)ccc1=O
33 | 115 to 117 °C | COC(=O)c1ccc(CN(CC2CCOCC2)S(=O)(=O)c2ccc(Cl)cc2)cc1
34 | 144 to 147 °C | Cc1ccc2c(c1)N(CC(=O)c1ccccc1C)C(=O)C(NC(=O)Nc1cccc(C(=O)O)c1)CN2C(=O)OCc1ccccc1 (centres undefined)
35 | 173 to 174 °C | COC(=O)c1[nH]c2c(C)ccc(C)c2c1Br
36 | 120 to 125 °C | O=C(CC1CCCCC1=O)c1ccc(O)cc1 (centres undefined)
37 | 131 to 132 °C | C(=C\c1cccs1)/c1nc(COc2ccc(CCCn3ccnc3)cc2)co1
38 | 80 °C | COC(=O)c1cnc(COC(=O)C(C)(C)Oc2ccc(Cl)cc2)s1
39 | 285 to 290 °C | Cc1[nH]c(=O)c2c(ccc3nc(Nc4c(Cl)cccc4Cl)n(C)c32)c1CCN1CCOCC1
40 | 196 to 198 °C | CC1(C)OC[C@H](CCOc2ccc(-c3nc4c5ccccc5c5ccccc5c4[nH]3)cc2)O1
41 | 88 to 92 °C | COc1c(S(=O)(=O)Cl)ccc(Cl)c1C
42 | 79 to 83 °C | Cn1nc(-c2c(Cl)cncc2Cl)nc1C1(C)CC1(Cl)Cl (centres undefined)
43 | 130 to 132 °C | Nc1ccccc1C(=O)c1cccc(O)c1

More lines, now with the values behind:

Row | Structure (SMILES) | melting point
44 | CC(C)Oc1cc(-n2nc(C(F)(F)F)n(C)c2=O)c(Cl)cc1Cl | 96 to 98 °C
45 | COc1ccc(S(=O)(=O)N2c3cc(F)ccc3-c3ccc(F)cc3C2C)cc1 (centres undefined) | 141 to 143 °C
46 | Fc1ccccc1-c1cc2ccccc2[nH]1 | 97 to 98 °C
47 | Cc1onc(-c2ccccc2)c1-c1[nH]c2ccccc2c1CCCN(C)C | 156 to 157 °C
48 | COc1cc2nc(N3CCN(C(=O)c4nnc(SC)o4)CC3)nc(N)c2cc1OC | 228 to 230 °C
49 | COc1cc(N)c2nccc(C)c2c1Oc1ccc(F)cc1 | 143 to 144 °C
50 | Cc1c(Cl)cncc1Cl | 46 to 47 °C
51 | Cc1c(N2C(=O)C[C@](C)(O)[C@@H]2C)ccc(C#N)c1F | 138 to 141 °C
52 | Cc1cccc(C(=O)Cc2ccnc(-c3ccc(OC(F)(F)F)cc3)c2)n1 | 76 to 78 °C
53 | Sc1ccc2ccncc2c1Cl | 118 to 122 °C
54 | CCOC(=O)C1=C(C)NC(CSCCOC(C)=O)=C(C(=O)OCC)C1c1cccc([N+](=O)[O-])c1 (centres undefined) | 84 to 86 °C
55 | Cc1ccc2c(CC(=O)O)c(C(=O)c3ccc(Cl)cc3)[nH]c2c1 | 193 to 195 °C
56 | CCN1CCc2cc(Nc3ncc(Cl)c(Nc4ccccc4C(=O)NC)n3)c(OC)c(N)c2CC1 | 117 to 160 °C
57 | CCCCCS(=O)(=O)NC(=O)/C=C/c1cc(OCCOC)nn1Cc1ccc(Cl)cc1Cl | 82 to 85 °C
58 | Cc1c(C(=O)O)cnn1-c1ccc(I)cc1 | 225 °C
59 | Clc1ccc(C2NCCc3c2[nH]c2ccccc32)cc1 (centres undefined) | 161 °C
60 | C#CCn1c(=O)cc(-c2ccccc2)c2cccnc21 | 127 to 129 °C
61 | CC(=O)N1CCN(CCSc2ccnc(CSc3nc4ccccc4[nH]3)c2C)CC1 | 129 to 131 °C
62 | Cc1cc(-c2ccc(S(N)(=O)=O)cc2)n(-c2ccc(F)cc2F)c1 | 140 to 141 °C
63 | CC(=O)Oc1ccc2c(c1)C(C(Cl)(Cl)Cl)OC(C(Cl)(Cl)Cl)O2 (centres undefined) | 142 to 144 °C
64 | CCOC(=O)c1cnn2c1c(Cl)nc1c(C)nn(C)c12 | 130 to 132 °C

Row | Structure (SMILES) | melting point
65 | Cc1ccc(Cl)c(N2C(=O)C(=NO)c3ccccc32)c1Cl | 190 to 191 °C
66 | CC(C)(C)c1cc(I)c2oncc2c1 | 106 to 109 °C
67 | O=C(O)[C@H]1C[C@@H](C(=O)O)c2c(Cl)cc(Cl)cc2N1 (relative stereo) | 225 to 227 °C
68 | O=C1Cc2cccc3c2N1C(C(F)(F)F)=C(F)S3 | 128 to 130 °C
69 | CC1(C)C(=O)N(c2ccc(C#N)c(C(F)(F)F)c2)C(=O)N1CCCCOCc1ccccc1 | 75 to 76 °C
70 | CCCCCCCCCCCCCCCCCCOCCO | 39 to 41 °C
71 | Cc1ccc(-c2ccc(/C=C/C(=O)O)o2)cc1 | 183 to 184 °C
72 | Cc1cc(F)c(N)cc1-n1cc(C(=O)O)c(=O)c2cc(F)c(N3CC(O)C3)c(C)c21 | 147 to 151 °C
73 | CC(=O)n1nc(CBr)c(Oc2cc(Cl)cc(C#N)c2)c1C | 122 to 123 °C
74 | CCOC(=O)CS(=O)(=O)Cl | 74 to 77 °C
75 | O=Cc1cccc(C=O)c1O | 122 to 125 °C
76 | CC(C)(C)c1cc(C=C2CC(C)(C)N(C(N)=O)C2=O)cc(C(C)(C)C)c1O | 200 to 203 °C
77 | Cc1cc(C#CC2(O)CN3CCC2CC3)cc(C)c1OCCOc1ccccc1 (centres undefined) | 141 to 142 °C
78 | COc1ccc(C2C3=C(COC3=O)Nc3ccc4nc(S)[nH]c4c32)cc1O (centres undefined) | 334 to 337 °C
79 | CCOC(=O)C1=C(C)NC(C)=C(C(=O)OCC)C1c1ccccc1C=Cc1ccc(Cl)cc1 | 178 to 181 °C
80 | C[C@@H](N[C@@H](CC(=O)N1CCn2c(nnc2C(F)(F)F)C1)Cc1cc(F)c(F)cc1F)c1ccccc1 | 128 °C
81 | O=C(O)C1CCCN1C(=O)CCc1cccc(-c2nc(=O)c3ccccc3s2)n1 (centres undefined) | 210 to 211 °C
82 | CCc1nc(O)cc(O)n1 | 312 to 315 °C
83 | CCCc1[nH]cnc1C(=O)OCC | 175 to 179 °C
84 | C#CCn1cc(C#N)c(C=O)c1 | 114 °C
85 | N#CC(N)=C(C#N)N=Cc1c(Cl)cc(C(F)(F)F)cc1Cl | 218 to 219 °C

Row | Structure (SMILES) | melting point
86 | CCCS(=O)(=O)c1ccc2c(c1)C(=O)C(Br)C2 (centres undefined) | 87 to 89 °C
87 | O=[N+]([O-])c1ccc(Cc2nnco2)cc1 | 104 to 105 °C
88 | N#CCOc1cccc(COc2ccc(OCc3ccc4ccccc4n3)cc2)c1 | 110 to 114 °C
89 | CC(=O)Oc1ccc(-c2c(CBr)c3ccc(F)cc3oc2=O)c(OC(C)=O)c1 | 230 to 231 °C
90 | COc1cc(F)c(C)cc1C(=O)O | 125 to 127 °C
91 | CCOC(=O)Cc1c(CCc2ccc(OC)cc2)oc2ccc(C#N)cc12 | 85 to 86 °C
92 | CCCCn1c(=O)c(N)c(C)n(CCC(C)C)c1=O | 68 to 70 °C
93 | CC1(C)OC(/C=C/c2ccc(Br)cc2)=CC1=O | 109 to 110 °C
94 | N#Cc1ccc(Nn2cnnc2)cc1-c1ccco1 | 217 to 218 °C
95 | Cc1ccc(C(C)(O)P(O)O)cc1 (centres undefined) | 115 °C
96 | CCOc1cc(N)ccc1C(O)c1cc(C)ccn1 (centres undefined) | 102 to 105 °C
97 | CS(=O)(=O)NCCn1nnnc1S | 131 to 132 °C
98 | CC(CCCC(C)C1C(O)CC2C3CC=C4CC(O)CCC4(C)C3CCC21C)CN1C(=O)c2ccccc2C1=O (centres undefined) | 134 to 136 °C
99 | Cc1n[nH]cc1-c1cccc2c1nnn2-c1ccnc(NC2CCN(S(C)(=O)=O)CC2)n1 | 231 to 232 °C
100 | Cc1ccc(NC(=O)C(C)(C)C)c(-c2cccc(-c3cc(C)ccc3NC(=O)C(C)(C)C)n2)c1 | 181 to 184 °C
101 | CCOC(=O)CC(=O)c1cc(F)c(F)cc1F | 57 to 59 °C
102 | CN1CCN(C(=S)Nc2ccc3nc(C(C)(C)C)sc3c2)CC1 | 176 to 177 °C
103 | CN(C)C(=N[N+](=O)[O-])N(C#N)Cc1cnc(Cl)s1 | 152 to 155 °C
104 | Cc1c(Cc2cc(=O)n(C3CCCCC3)[nH]2)c2ccccc2n1C(=O)c1ccc(Cl)cc1 | 98 °C
